Measurements from ChEMBL document CHEMBL3826929, “Discovery and Preclinical Evaluation of BMS-711939, an Oxybenzylglycine Based PPARα Selective Agonist” (ACS Med Chem Lett, 2016).

How the values were obtained:
[1] = AUC (0 to 8 hrs) in cynomolgus monkey at 2 mg/kg, po; type: ADME, organism-based, Macaca fascicularis; set-up: time < 8 hr, dose 2 mg/kg, route oral; conditions: in vivo
[2] = Tmax in Sprague-Dawley rat at 8 mg/kg, po; type: ADME, organism-based; conditions: in vivo
CHO = experiment: Clastogenecity in CHO cells; type: ADME, cell-based, Cricetulus griseus; conditions: chinese hamster
[3] = Half life in Balb/c mouse at 5 mg/kg, iv; type: ADME, organism-based; conditions: in vivo
Syrian golden hamster [4] = experiment: Decrease in plasma LDL cholesterol level in high fat-diet fed syrian golden hamster model of dyslipidemia administered qd through oral gavage measured after 21 days by FPLC analysis relative to control; type: functional, organism-based; conditions: Mesocricetus auratus
Syrian golden hamster [5] = experiment: Decrease in liver triglyceride level in high fat-diet fed syrian golden hamster model of dyslipidemia at 3 mg/kg administered qd through oral gavage measured after 21 days by FPLC analysis relative to control; type: functional, Mesocricetus auratus; set-up: scale not given: the % may be the effect or the level left
[6] = target: Retinoid X receptor (Homo sapiens) (UniProt P28702+P48443+P19793); experiment: Agonist activity at human RXR by transactivation assay relative to standard compound; type: protein assay
Sequence of Retinoid X receptor (Homo sapiens) (P19793 whole entry, looked up): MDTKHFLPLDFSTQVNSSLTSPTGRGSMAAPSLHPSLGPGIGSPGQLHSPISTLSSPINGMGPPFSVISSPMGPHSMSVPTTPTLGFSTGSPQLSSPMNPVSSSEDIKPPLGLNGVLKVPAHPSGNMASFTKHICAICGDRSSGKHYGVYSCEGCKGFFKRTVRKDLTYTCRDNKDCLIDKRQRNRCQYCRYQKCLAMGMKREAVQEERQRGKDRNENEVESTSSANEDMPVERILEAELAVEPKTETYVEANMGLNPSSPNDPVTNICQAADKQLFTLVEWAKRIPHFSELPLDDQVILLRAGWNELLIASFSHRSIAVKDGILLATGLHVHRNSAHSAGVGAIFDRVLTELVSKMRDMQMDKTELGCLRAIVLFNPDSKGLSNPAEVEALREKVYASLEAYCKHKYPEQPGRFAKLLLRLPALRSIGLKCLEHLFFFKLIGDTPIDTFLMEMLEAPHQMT
Sequence of Retinoid X receptor (Homo sapiens) (P28702 whole entry, looked up): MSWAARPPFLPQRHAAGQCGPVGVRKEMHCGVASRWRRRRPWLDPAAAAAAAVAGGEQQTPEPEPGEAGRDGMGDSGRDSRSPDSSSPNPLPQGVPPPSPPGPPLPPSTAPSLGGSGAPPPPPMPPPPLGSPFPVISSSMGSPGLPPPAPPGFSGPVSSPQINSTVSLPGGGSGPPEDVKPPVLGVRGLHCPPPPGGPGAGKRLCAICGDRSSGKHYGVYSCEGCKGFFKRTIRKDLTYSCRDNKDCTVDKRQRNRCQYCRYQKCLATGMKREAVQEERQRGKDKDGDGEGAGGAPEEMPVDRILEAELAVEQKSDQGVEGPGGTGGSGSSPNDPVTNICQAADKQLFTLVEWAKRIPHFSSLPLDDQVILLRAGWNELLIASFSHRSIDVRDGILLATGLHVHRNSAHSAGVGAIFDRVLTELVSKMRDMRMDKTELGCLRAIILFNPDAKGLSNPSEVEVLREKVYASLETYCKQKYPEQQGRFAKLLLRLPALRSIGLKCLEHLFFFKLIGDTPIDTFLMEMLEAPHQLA
Sequence of Retinoid X receptor (Homo sapiens) (P48443 whole entry, looked up): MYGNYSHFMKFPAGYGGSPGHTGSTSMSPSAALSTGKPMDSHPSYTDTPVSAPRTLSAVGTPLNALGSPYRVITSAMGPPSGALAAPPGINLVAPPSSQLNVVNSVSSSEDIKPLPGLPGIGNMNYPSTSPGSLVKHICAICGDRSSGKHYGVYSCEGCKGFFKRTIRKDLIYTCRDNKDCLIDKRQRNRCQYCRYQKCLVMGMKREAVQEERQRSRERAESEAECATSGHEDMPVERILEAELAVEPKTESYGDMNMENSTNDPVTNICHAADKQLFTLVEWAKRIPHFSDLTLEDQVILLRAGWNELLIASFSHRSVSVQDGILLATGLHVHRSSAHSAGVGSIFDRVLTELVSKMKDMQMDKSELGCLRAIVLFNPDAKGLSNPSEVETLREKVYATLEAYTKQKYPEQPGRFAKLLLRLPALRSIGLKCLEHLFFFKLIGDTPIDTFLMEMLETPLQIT

[7] = Plasma clearance in Sprague-Dawley rat at 4 mg/kg, iv; type: ADME, organism-based
[8] = AUC (0 to 8 hrs) in cynomolgus monkey at 1 mg/kg, iv; type: ADME, organism-based, Macaca fascicularis; set-up: time < 8 hr, dose 1 mg/kg, route intravenous; conditions: in vivo
Syrian golden hamster [9] = experiment: Decrease in plasma triglyceride level in high fat-diet fed syrian golden hamster model of dyslipidemia at 10 mg/kg administered qd through oral gavage measured after 21 days by FPLC analysis relative to control; type: functional, Mesocricetus auratus; set-up: scale not given: the % may be the effect or the level left
[10] = AUC (0 to 8 hrs) in dog at 1 mg/kg, iv; type: ADME, organism-based, Canis lupus familiaris; set-up: dose 1 mg/kg, time < 8 hr, route intravenous; conditions: in vivo
Mus musculus [11] = experiment: Decrease in triglyceride level in transgenic mouse expressing human ApoA1 at 3 mg/kg administered qd through oral gavage measured after 10 days relative to vehicle control; type: functional; set-up: scale not given: the % may be the effect or the level left
Syrian golden hamster [12] = experiment: Decrease in liver triglyceride level in high fat-diet fed syrian golden hamster model of dyslipidemia at 1 mg/kg administered qd through oral gavage measured after 21 days by FPLC analysis relative to control; type: functional, Mesocricetus auratus; set-up: scale not given: the % may be the effect or the level left
[13] = Protein binding in dog plasma; type: ADME, cell-free, Canis lupus familiaris; conditions: read-out: PPB (converted)
Syrian golden hamster [14] = experiment: Decrease in liver cholesterol level in high fat-diet fed syrian golden hamster model of dyslipidemia at 3 mg/kg administered qd through oral gavage measured after 21 days by FPLC analysis relative to control; type: functional, Mesocricetus auratus; set-up: scale not given: the % may be the effect or the level left
Mus musculus [15] = experiment: Increase in ApoA1 level in transgenic mouse expressing human ApoA1 at 10 mg/kg administered qd through oral gavage measured after 10 days relative to vehicle-treated control; type: functional
[16] = Volume of distribution at steady state in Sprague-Dawley rat at 4 mg/kg, iv; type: ADME, organism-based; conditions: in vivo, read-out: Vdss
Syrian golden hamster [17] = experiment: Decrease in liver triglyceride level in high fat-diet fed syrian golden hamster model of dyslipidemia at 10 mg/kg administered qd through oral gavage measured after 21 days by FPLC analysis relative to control; type: functional, Mesocricetus auratus; set-up: scale not given: the % may be the effect or the level left
[18] = AUC (0 to 8 hrs) in dog at 2 mg/kg, po; type: ADME, organism-based, Canis lupus familiaris; set-up: dose 2 mg/kg, time < 8 hr, route oral; conditions: in vivo
Cytochrome P450 2C9 = Cytochrome P450 2C9 (Homo sapiens, UniProt P11712); experiment: Inhibition of CYP2C9 (unknown origin); type: ADME
Sequence of Cytochrome P450 2C9 (P11712 whole entry): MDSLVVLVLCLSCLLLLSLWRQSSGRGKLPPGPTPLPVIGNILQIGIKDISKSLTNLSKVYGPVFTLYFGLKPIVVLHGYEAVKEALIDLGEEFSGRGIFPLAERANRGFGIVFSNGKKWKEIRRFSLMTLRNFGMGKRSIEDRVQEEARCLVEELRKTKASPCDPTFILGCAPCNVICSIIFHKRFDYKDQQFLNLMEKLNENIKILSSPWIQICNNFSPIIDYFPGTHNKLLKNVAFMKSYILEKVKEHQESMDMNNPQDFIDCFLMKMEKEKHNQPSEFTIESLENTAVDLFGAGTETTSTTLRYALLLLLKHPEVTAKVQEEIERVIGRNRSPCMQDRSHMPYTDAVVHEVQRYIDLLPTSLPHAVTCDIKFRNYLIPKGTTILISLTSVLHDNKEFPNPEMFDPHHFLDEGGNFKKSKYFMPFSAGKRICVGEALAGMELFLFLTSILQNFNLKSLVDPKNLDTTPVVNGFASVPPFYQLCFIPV

Mus musculus [19] = experiment: Increase in HDL cholesterol level in transgenic mouse expressing human ApoA1 compound administered qd through oral gavage measured after 10 days; type: functional, organism-based
[20] = Plasma clearance in dog at 1 mg/kg, iv; type: ADME, organism-based, Canis lupus familiaris
[21] = target: T1, Peroxisome proliferator-activated receptor gamma (Homo sapiens, UniProt P37231); experiment: Agonist activity at full length human PPAR-gamma transfected in human HepG2 cells by luciferase reporter gene assay; type: cell-based
T1 sequence (P37231 whole entry): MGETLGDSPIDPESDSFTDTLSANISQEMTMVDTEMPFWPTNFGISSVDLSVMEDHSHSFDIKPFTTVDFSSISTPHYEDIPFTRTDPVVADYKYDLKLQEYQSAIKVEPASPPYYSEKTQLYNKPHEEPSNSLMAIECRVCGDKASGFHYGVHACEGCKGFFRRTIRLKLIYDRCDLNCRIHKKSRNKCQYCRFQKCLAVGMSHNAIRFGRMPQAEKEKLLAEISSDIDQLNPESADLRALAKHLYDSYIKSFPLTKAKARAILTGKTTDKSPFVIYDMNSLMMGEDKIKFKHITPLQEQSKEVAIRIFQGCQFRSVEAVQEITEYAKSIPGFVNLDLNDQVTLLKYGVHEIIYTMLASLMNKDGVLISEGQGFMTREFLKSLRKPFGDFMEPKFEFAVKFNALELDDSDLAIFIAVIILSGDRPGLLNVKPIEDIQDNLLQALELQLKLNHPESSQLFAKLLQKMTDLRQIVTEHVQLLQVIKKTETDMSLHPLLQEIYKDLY

Cytochrome P450 1A2 = Cytochrome P450 1A2 (Homo sapiens, UniProt P05177); experiment: Inhibition of CYP1A2 (unknown origin); type: ADME
Sequence of Cytochrome P450 1A2 (P05177 whole entry): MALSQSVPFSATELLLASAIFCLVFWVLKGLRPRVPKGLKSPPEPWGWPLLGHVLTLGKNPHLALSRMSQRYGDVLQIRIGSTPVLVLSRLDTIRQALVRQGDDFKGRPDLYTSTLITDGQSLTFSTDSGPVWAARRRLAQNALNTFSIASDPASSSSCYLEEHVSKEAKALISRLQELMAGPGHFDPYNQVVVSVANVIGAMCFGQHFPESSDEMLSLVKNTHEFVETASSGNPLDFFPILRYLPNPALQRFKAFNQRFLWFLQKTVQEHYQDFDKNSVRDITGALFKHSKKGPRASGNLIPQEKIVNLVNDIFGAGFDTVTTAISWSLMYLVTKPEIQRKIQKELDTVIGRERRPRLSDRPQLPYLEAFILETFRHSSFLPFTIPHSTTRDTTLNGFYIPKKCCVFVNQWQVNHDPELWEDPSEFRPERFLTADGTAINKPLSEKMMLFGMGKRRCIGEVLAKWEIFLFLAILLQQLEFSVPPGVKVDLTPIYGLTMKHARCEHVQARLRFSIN

[22] = target: Liver X receptor (Homo sapiens) (UniProt Q13133+P55055); experiment: Agonist activity at human LXR by transactivation assay relative to standard compound; type: protein assay
Syrian golden hamster [23] = experiment: Decrease in plasma LDL cholesterol level in high fat-diet fed syrian golden hamster model of dyslipidemia at 3 mg/kg administered qd through oral gavage measured after 21 days by FPLC analysis relative to control; type: functional, Mesocricetus auratus; set-up: scale not given: the % may be the effect or the level left
Mus musculus [24] = experiment: Increase in HDL cholesterol level in transgenic mouse expressing human ApoA1 at 3 mg/kg administered qd through oral gavage measured after 10 days relative to vehicle control; type: functional
Mus musculus [25] = experiment: Increase in HDL cholesterol level in transgenic mouse expressing human ApoA1 at 10 mg/kg administered qd through oral gavage measured after 10 days relative to vehicle control; type: functional
[26] = Tmax in Balb/c mouse at 10 mg/kg, po; type: ADME, organism-based; conditions: in vivo
[27] = target: Nuclear receptor subfamily 1 group I member 2 (Homo sapiens, UniProt O75469); experiment: Activation of PXR (unknown origin); type: ADME
Sequence of Nuclear receptor subfamily 1 group I member 2 (O75469 whole entry): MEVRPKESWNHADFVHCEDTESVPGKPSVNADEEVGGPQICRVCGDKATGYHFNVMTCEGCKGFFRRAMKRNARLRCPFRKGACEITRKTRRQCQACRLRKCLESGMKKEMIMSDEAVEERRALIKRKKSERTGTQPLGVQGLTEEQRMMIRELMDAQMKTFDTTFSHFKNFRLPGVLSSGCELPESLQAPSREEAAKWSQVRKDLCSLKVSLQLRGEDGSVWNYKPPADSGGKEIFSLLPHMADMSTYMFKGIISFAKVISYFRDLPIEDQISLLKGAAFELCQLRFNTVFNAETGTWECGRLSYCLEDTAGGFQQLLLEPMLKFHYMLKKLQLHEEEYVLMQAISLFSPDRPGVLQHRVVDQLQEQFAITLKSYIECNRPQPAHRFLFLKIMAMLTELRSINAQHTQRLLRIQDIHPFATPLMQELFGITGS

Cytochrome P450 2C8 = Cytochrome P450 2C8 (Homo sapiens, UniProt P10632); experiment: Inhibition of CYP2C8 (unknown origin); type: ADME
Sequence of Cytochrome P450 2C8 (P10632 whole entry): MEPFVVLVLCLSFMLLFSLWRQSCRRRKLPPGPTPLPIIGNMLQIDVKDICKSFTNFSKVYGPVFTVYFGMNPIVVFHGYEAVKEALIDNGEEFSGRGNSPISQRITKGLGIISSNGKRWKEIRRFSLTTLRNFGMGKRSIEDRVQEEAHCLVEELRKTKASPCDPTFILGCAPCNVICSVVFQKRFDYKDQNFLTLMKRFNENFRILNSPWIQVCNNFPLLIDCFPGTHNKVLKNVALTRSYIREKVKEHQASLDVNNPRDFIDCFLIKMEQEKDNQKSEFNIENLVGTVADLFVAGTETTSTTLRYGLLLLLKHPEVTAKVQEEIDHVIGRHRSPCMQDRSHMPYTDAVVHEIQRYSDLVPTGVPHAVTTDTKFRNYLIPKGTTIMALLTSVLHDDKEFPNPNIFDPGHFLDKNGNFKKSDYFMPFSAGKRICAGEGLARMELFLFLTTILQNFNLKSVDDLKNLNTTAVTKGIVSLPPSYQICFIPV

[28] = target: T2, Peroxisome proliferator-activated receptor alpha (Homo sapiens, UniProt Q07869); experiment: Agonist activity at full length human PPAR-alpha transfected in human HepG2 cells by luciferase reporter gene assay; type: cell-based
T2 sequence (Q07869 whole entry): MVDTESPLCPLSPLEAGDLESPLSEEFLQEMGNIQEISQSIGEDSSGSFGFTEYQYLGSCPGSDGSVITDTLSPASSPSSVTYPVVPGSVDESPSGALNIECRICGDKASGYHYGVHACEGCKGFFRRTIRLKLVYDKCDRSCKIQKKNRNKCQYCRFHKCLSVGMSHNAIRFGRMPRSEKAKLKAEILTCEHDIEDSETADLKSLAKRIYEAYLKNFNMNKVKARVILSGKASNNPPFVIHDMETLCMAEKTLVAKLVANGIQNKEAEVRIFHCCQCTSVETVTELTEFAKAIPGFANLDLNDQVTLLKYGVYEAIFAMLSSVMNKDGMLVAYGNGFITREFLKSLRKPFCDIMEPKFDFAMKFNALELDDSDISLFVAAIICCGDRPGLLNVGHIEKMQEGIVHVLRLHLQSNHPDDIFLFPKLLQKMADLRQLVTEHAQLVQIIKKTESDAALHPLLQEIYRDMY

Mus musculus [29] = experiment: Increase in serum ApoA1 level in transgenic mouse expressing human ApoA1 compound administered qd through oral gavage measured after 10 days; type: functional, organism-based

AUC(0-t) at 8 h [1]: 8.5 µM·h
Tmax [2]: 18 min
half-life [3]: 108 min
Efficacy [6]: < 15%
clearance [7]: 15.3 mL/min/kg
AUC(0-t) at 8 h [8]: 7.5 µM·h
AUC(0-t) at 8 h [10]: 3.5 µM·h
fraction unbound [13]: 0.005
Vd [16]: 2.2 L/kg
AUC(0-t) at 8 h [18]: 4 µM·h
IC50 (Cytochrome P450 2C9): > 40 µM
clearance [20]: 10.7 mL/min/kg
EC50 [21]: > 1.61 µM
IC50 (Cytochrome P450 1A2): > 40 µM
Efficacy [22]: < 15%
Tmax [26]: 15 min
EC60 [27]: > 50 µM
IC50 (Cytochrome P450 2C8): > 40 µM
EC50 [28]: 0.005 µM
Compound: COC(=O)N(CC(=O)O)Cc1cc(OCc2nc(-c3ccc(Cl)cc3)oc2C)ccc1F
Activity (CHO): Non-toxic
Activity (Syrian golden hamster [4]): Dose-dependent effect
Activity (Syrian golden hamster [5]): 39.8%
Activity (Syrian golden hamster [9]): 85%
Activity (Mus musculus [11]): 14.2%
Activity (Syrian golden hamster [12]): 18.7%
Activity (Syrian golden hamster [14]): 56.8%
Activity (Mus musculus [15]): 400%
Activity (Syrian golden hamster [17]): 48%
Activity (Mus musculus [19]): Dose-dependent effect
Activity (Syrian golden hamster [23]): 61%
Activity (Mus musculus [24]): 16%
Activity (Mus musculus [25]): 74%
Activity (Mus musculus [29]): Dose-dependent effect
